# Values of other authors, collected in patent publication US6635277B2, “Composition for pulsatile delivery of diltiazem and process of manufacture” (Wockhardt Limited, priority 2000, dated 2003).
# Conditions: in 0.1N HCl
smiles,measurement,value
CCCCCCCCCCCCOS(=O)(=O)[O-].[Na+] [sodium lauryl sulfate],Fraction ionized,10%
